Experimental data published in US9492453B2 (priority 2007, dated 2016).
Read-outs that look alike come from different tables or passages of the source.

Experiments:
[1] = Human dose prediction (estimated human pharmacokinetic parameters); conditions: plasma; from rat and dog Vss corrected by Fu, human/Fu (rat or dog); read-out: Human Vss (Volume of Distribution at Steady State), estimated
AKT1 (PKBα) = AKT1 (PKBα) (Homo sapiens (Human), UniProt P31749); conditions: read-out: In vitro PKBα Mean IC50, AKT1/PKBα active enzyme, Caliper LabChip LC3000
AKT1 (PKBα), sequence (P31749 whole entry): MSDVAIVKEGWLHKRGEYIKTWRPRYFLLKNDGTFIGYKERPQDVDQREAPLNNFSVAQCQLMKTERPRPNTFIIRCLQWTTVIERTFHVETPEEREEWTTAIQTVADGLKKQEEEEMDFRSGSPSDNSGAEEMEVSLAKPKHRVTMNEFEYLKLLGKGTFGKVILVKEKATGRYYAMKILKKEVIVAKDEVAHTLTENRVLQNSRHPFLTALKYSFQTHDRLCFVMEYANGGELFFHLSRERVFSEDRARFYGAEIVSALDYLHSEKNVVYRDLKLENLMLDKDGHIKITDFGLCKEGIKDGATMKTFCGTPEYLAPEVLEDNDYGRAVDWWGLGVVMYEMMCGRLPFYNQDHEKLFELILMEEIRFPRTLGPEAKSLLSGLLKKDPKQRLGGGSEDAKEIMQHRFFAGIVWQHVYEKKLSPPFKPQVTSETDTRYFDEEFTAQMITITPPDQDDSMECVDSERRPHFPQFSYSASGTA

PKB (Akt) = conditions: read-out: Cellular PKB Mean IC50; MDA-MB-468 cells, phosphorylation of Serine-9 of GSK-3β, 2 hours incubation

Row | Vd [1] | IC50 (AKT1 (PKBα)) | IC50 (PKB (Akt)) | IC50 (AKT1 (PKBα); tested once only) | SMILES
1 | 3.3 L/kg |  |  |  | NC1(C(=O)N[C@@H](CCO)c2ccc(Cl)cc2)CCN(c2ncnc3[nH]ccc23)CC1 [Example 9, (S)-4-amino-N-(1-(4-chlorophenyl)-3-hydroxypropyl)-1-(7H-pyrrolo[2,3-d]pyrimidin-4-yl)piperidine-4-carboxamide]
2 |  | 28 nM | 560 nM |  | NC1(C(=O)NC(Cc2nccs2)c2ccc(Cl)cc2)CCN(c2ncnc3[nH]ccc23)CC1 (stereo not drawn) [Example 62, 4-amino-N-(1-(4-chlorophenyl)-2-(thiazol-2-yl)ethyl)-1-(7H-pyrrolo[2,3-d]pyrimidin-4-yl)piperidine-4-carboxamide]
3 |  |  | 990 nM | 6.6 nM | NC(=O)CC(NC(=O)C1(N)CCN(c2ncnc3[nH]ccc23)CC1)c1ccc(Cl)cc1 (stereo not drawn) [Example 66, 4-amino-N-(3-amino-1-(4-chlorophenyl)-3-oxopropyl)-1-(7H-pyrrolo[2,3-d]pyrimidin-4-yl)piperidine-4-carboxamide]
4 |  |  | 890 nM | 7.7 nM | NC(=O)NCCC(NC(=O)C1(N)CCN(c2ncnc3[nH]ccc23)CC1)c1ccc(Cl)cc1 (stereo not drawn) [Example 67, 4-amino-N-(1-(4-chlorophenyl)-3-ureidopropyl)-1-(7H-pyrrolo[2,3-d]pyrimidin-4-yl)piperidine-4-carboxamide]
5 |  | 12 nM | 340 nM |  | N#CCC(NC(=O)C1(N)CCN(c2ncnc3[nH]ccc23)CC1)c1ccc(Cl)cc1 (stereo not drawn) [Example 68, 4-amino-N-(1-(4-chlorophenyl)-2-cyanoethyl)-1-(7H-pyrrolo[2,3-d]pyrimidin-4-yl)piperidine-4-carboxamide]

More lines, now with the values behind:

Row | SMILES | Vd [1] | IC50 (AKT1 (PKBα)) | IC50 (PKB (Akt)) | IC50 (AKT1 (PKBα); tested once only)
6 | NC1(C(=O)N[C@@H](CCN2CCOCC2)c2ccc(Cl)cc2)CCN(c2ncnc3[nH]ccc23)CC1 [Example 51, 4-amino-N-[(1S)-1-(4-chlorophenyl)-3-morpholin-4-ylpropyl]-1-(7H-pyrrolo[2,3-d]pyrimidin-4-yl)piperidine-4-carboxamide] |  | 10 nM | 310 nM | 
7 | NC1(C(=O)N[C@@H](CCN2CCNCC2)c2ccc(Cl)cc2)CCN(c2ncnc3[nH]ccc23)CC1 [Example 53, 4-amino-N-[(1S)-1-(4-chlorophenyl)-3-piperazin-1-ylpropyl]-1-(7H-pyrrolo[2,3-d]pyrimidin-4-yl)piperidine-4-carboxamide] |  | 6.3 nM | > 2400 nM | 
8 | NC1(C(=O)N[C@@H](CCn2ccnc2)c2ccc(Cl)cc2)CCN(c2ncnc3[nH]ccc23)CC1 [Example 54, 4-amino-N-[(1S)-1-(4-chlorophenyl)-3-(1H-imidazol-1-yl)propyl]-1-(7H-pyrrolo[2,3-d]pyrimidin-4-yl)piperidine-4-carboxamide] |  | 3.4 nM | 180 nM | 
9 | NC1(C(=O)NC(Cc2ncc[nH]2)c2ccc(Cl)cc2)CCN(c2ncnc3[nH]ccc23)CC1 (stereo not drawn) [Example 59, 4-amino-N-(1-(4-chlorophenyl)-2-(1H-imidazol-2-yl)ethyl)-1-(7H-pyrrolo[2,3-d]pyrimidin-4-yl)piperidine-4-carboxamide] |  | 6.3 nM | 840 nM | 
10 | NC1(C(=O)NC(Cn2cccn2)c2ccc(Cl)cc2)CCN(c2ncnc3[nH]ccc23)CC1 (stereo not drawn) [Example 60, 4-amino-N-[1-(4-chlorophenyl)-2-(1H-pyrazol-1-yl)ethyl]-1-(7H-pyrrolo[2,3-d]pyrimidin-4-yl)piperidine-4-carboxamide] |  | 23 nM | 470 nM | 
11 | Cc1cc(CC(NC(=O)C2(N)CCN(c3ncnc4[nH]ccc34)CC2)c2ccc(Cl)cc2)on1 (stereo not drawn) [Example 61, 4-amino-N-[1-(4-chlorophenyl)-2-(3-methylisoxazol-5-yl)ethyl]-1-(7H-pyrrolo[2,3-d]pyrimidin-4-yl)piperidine-4-carboxamide] |  | 23 nM | 850 nM | 
